Test results published in article PMC11052825 (Clinical Pharmacokinetics, 2024).
Where two headings read alike, the source gives them in different places.

How the values were obtained:
OATP1B1 [1] = settings: strong inhibitor of OATP1B1; cited from earlier work
[2] = Risk categorization of statins for coadministration with encorafenib; settings: qualitative, from metabolic and transporter profile
[3] = assay type: in vivo, Human; settings: single oral administrations on days −7, 1 and 14
BCRP [4] = settings: cited from earlier work
OATP1B1/3 = settings: in vitro, potent inhibitor; cited from earlier work
CYP2B6 [5] = assay type: in vivo, Human
[6] = cited from earlier work
CYP3A4 = settings: cited from earlier work
CYP2C19 = settings: cited from earlier work
BCRP [7] = settings: in vitro, weak inhibitor; cited from earlier work
[8] = test system: OATP1B1, OATP1B3, and BCRP; assay type: in vivo, Human; settings: phase 1 study and exploratory CP-I analysis
CYP2B6 [9] = settings: in vitro hepatocyte assay, clinically relevant plasma concentrations; cited from earlier work
CYP2D6 = settings: cited from earlier work
CYP2B6 [10] = settings: in vitro; cited from earlier work
[11] = Phase 1 DDI study: plasma PK of encorafenib; assay type: in vivo; settings: human, oral, GM (CV%); for AUC(0-t): AUClast
OATP1B1 [12] = target: T1, OATP1B1 (Homo sapiens, UniProt Q9Y6L6); experiment: Maximum fold change of plasma CP-I in phase 3 safety lead-in participants; assay type: in vivo; settings: SLI phase, encorafenib 300 mg QD + cetuximab
T1 sequence (Q9Y6L6 1-691): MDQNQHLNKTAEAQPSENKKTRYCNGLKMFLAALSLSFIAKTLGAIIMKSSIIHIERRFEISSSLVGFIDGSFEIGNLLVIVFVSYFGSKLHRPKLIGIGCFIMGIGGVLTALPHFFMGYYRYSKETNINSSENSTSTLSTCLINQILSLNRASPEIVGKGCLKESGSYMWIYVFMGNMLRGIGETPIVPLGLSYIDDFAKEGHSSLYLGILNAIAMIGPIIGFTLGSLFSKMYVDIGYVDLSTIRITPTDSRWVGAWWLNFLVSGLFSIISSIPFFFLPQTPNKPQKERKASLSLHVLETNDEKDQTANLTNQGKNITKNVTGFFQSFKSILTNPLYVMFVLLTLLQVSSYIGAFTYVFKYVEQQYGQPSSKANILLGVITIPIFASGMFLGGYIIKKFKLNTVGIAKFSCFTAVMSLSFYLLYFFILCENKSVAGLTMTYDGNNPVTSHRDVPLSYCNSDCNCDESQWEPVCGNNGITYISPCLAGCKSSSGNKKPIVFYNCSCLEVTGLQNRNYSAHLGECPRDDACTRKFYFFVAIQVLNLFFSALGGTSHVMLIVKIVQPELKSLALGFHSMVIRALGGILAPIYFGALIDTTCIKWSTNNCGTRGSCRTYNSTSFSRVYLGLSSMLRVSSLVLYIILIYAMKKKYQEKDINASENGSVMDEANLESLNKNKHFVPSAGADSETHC

CYP2B6 and CYP3A4 = settings: strong inducer of CYP2B6 and CYP3A4; cited from earlier work

## CO[C@H]1/C=C/O[C@@]2(C)Oc3c(C)c(O)c4c(O)c(c(/C=N/N5CCN(C)CC5)c(O)c4c3C2=O)NC(=O)/C(C)=C\C=C\[C@H](C)[C@H](O)[C@@H](C)[C@@H](O)[C@@H](C)[C@H](OC(C)=O)[C@@H]1C [rifampin]
OATP1B1 [1]
  Plasma CP-I maximum fold-change: approximately 6 fold

## CC(C)c1c(C(=O)Nc2ccccc2)c(-c2ccccc2)c(-c2ccc(F)cc2)n1CC[C@@H](O)C[C@@H](O)CC(=O)O [Atorvastatin]
[2]
  Risk category following coadministration with encorafenib: at risk of loss of efficacy

## CC[C@H](C)C(=O)O[C@H]1C[C@@H](C)C=C2C=C[C@H](C)[C@H](CC[C@@H]3C[C@@H](O)CC(=O)O3)[C@H]21 [Lovastatin]
[2]
  Risk category following coadministration with encorafenib: at risk of loss of efficacy

## O=C(O)C[C@H](O)C[C@H](O)/C=C/c1c(C2CC2)nc2ccccc2c1-c1ccc(F)cc1 [Pitavastatin]
[2]
  Risk category following coadministration with encorafenib: highest risk of increased exposure

## CC[C@H](C)C(=O)O[C@H]1C[C@H](O)C=C2C=C[C@H](C)[C@H](CC[C@@H](O)C[C@@H](O)CC(=O)O)[C@H]21 [Pravastatin]
[2]
  Risk category following coadministration with encorafenib: least likely to be affected

## CC(C)c1nc(N(C)S(C)(=O)=O)nc(-c2ccc(F)cc2)c1/C=C/[C@@H](O)C[C@@H](O)CC(=O)O [Rosuvastatin, rosuvastatin]
[3]
  Tmax: 2 h
[2]
  Risk category following coadministration with encorafenib: highest risk of increased exposure
BCRP [4]
  Theoretical maximum fold-change in exposure based on BCRP alone: 2 fold

## COC(=O)N[C@@H](C)CNc1nccc(-c2cn(C(C)C)nc2-c2cc(Cl)cc(NS(C)(=O)=O)c2F)n1 [Encorafenib, encorafenib]
OATP1B1/3
  R values (inhibition): ≥ 1.1
CYP2B6 [5]; bupropion probe, after a single dose of encorafenib
  Clinical CYP2B6 inhibition (conclusion): does not act as an inhibitor of CYP2B6
CYP2B6 [5]; bupropion probe, steady-state encorafenib
  Clinical CYP2B6 induction (conclusion): likely not a clinically relevant inducer of CYP2B6
[6]; autoinduction of CYP3A4
  Steady-state exposure lower compared with exposure following a single dose: approximately 50%
[6]; oral, no reference given
  Estimated bioavailability: at least 86%
  Time to peak concentrations: ≤ 2 h
CYP3A4
  Share of metabolism: 83%
CYP2C19
  Share of metabolism: 16%
BCRP [7]
  R values (inhibition): ≥ 1.1
[8]
  Clinical BCRP inhibition (conclusion): likely an inhibitor of BCRP
  Clinical OATP1B1/3 inhibition (conclusion): may also inhibit OATP1B1/3 to a lesser extent
CYP2B6 [9]
  R3 values (induction): < 0.9
CYP2D6
  Share of metabolism: 1%
CYP2B6 [10]
  Unbound R1 value (reversible inhibition): 3.1
[11]; encorafenib single dose (day 1)
  AUC(0-t): 25900 ng·h/mL
[11]; encorafenib steady state (day 14)
  AUC(0-t): 13100 ng·h/mL
[11]; Cmax, encorafenib steady state (day 14), n=10
  Cmax: 2940 ng/mL

## C[C@H]1NC(C)(C)CO[C@]1(O)c1cccc(Cl)c1 [Hydroxybupropion, hydroxybupropion]
CYP2B6 [5]; following a single dose of encorafenib and binimetinib
  Change in AUClast: not changed
CYP2B6 [5]; with repeated doses of encorafenib and binimetinib
  Increase in AUClast: 48%

## Coproporphyrin I [CP-I]
OATP1B1 [12]; C1D1 (single dose), CRC patients
  Observed maximum fold change in CP-I concentrations: 1.4 fold
OATP1B1 [12]; C2D1
  Observed maximum fold change in CP-I concentrations: 1.2 fold

## CC(NC(C)(C)C)C(=O)c1cccc(Cl)c1 (centres unmarked) [Bupropion, bupropion]
CYP2B6 [5]; following repeated doses of encorafenib and binimetinib
  Decrease in AUClast compared with administration on its own: 26%
CYP2B6 [5]; following single dose of encorafenib and binimetinib
  Decrease in AUClast compared with administration on its own: 23%

## NC(=O)N1c2ccccc2C=Cc2ccccc21 [carbamazepine]
CYP2B6 and CYP3A4
  Effect of treatment on bupropion and hydroxybupropion: substantial decrease in bupropion and increase in hydroxybupropion
